19 molecules from ChEMBL document CHEMBL1909046, “DrugMatrix in vitro pharmacology data” can be followed below.

Data set [1] in a line: DRUGMATRIX: Calcium Channel Type L, Benzothiazepine radioligand binding (ligand: [3H] Diltiazem). The conditions noted are these: Not Active = under 50% inhibition at 10 µM. It is filed as cell membranes, Rattus norvegicus, Wistar, Brain, Membrane.
A short description of data set [2]: DRUGMATRIX: Glutamate, NMDA, Agonism radioligand binding (ligand: [3H] CGP-39653). It is filed as cell membranes, Rattus norvegicus, Wistar, Cerebral cortex, Membrane. The conditions noted are these: Not Active = under 50% inhibition at 10 µM.
Data set [3] addresses Prostaglandin G/H synthase 1 (Homo sapiens, UniProt P23219). Briefly: biochemical. It is filed as tissue-based, Platelet. To be noted: platelet.
Another data set deals with T1, D(4) dopamine receptor (Homo sapiens, UniProt P21917).
T1 sequence (P21917 whole entry): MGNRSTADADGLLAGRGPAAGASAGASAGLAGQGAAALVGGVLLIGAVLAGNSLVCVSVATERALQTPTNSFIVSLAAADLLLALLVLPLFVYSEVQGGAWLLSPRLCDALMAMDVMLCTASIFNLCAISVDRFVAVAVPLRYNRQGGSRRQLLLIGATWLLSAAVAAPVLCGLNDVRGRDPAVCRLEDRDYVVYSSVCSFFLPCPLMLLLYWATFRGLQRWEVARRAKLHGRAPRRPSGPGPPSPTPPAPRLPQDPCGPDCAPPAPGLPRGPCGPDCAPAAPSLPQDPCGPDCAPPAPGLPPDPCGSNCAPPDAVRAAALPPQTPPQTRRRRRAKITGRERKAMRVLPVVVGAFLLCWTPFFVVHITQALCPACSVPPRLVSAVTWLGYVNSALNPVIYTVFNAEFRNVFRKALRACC
Briefly: DRUGMATRIX: Dopamine D4.2 radioligand binding (ligand: [3H] Spiperone). In kind it is cell membranes, CHO-K1, Membrane. The conditions noted are these: cho-k1; Not Active = under 50% inhibition at 10 µM.

In data set [4] the target is Aldo-keto reductase family 1 member B1 (Rattus norvegicus, UniProt P07943). Briefly: biochemical. In kind it is tissue-based, Lens of camera-type eye.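 Note: inhibition of aldose reductase enzyme activity, measured with DL-glyceraldehyde as the substrate; in other assays of this panel Not Active means under 50% inhibition at 10 µM.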
Data set [5] can be described thus: DRUGMATRIX: Phosphodiesterase PDE3 enzyme inhibition (substrate: [3H]cAMP + cAMP). To be noted: platelet, Not Active = under 50% inhibition at 10 µM. It is filed as tissue-based, Homo sapiens.
In the next data set the target is Cytochrome P450 2D6 (Homo sapiens, UniProt P10635). The conditions noted are these: bti-tn-5b1-4. Note: in other assays of this panel Not Active means under 50% inhibition at 10 µM.
Cytochrome P450 2D6, sequence (P10635 whole entry): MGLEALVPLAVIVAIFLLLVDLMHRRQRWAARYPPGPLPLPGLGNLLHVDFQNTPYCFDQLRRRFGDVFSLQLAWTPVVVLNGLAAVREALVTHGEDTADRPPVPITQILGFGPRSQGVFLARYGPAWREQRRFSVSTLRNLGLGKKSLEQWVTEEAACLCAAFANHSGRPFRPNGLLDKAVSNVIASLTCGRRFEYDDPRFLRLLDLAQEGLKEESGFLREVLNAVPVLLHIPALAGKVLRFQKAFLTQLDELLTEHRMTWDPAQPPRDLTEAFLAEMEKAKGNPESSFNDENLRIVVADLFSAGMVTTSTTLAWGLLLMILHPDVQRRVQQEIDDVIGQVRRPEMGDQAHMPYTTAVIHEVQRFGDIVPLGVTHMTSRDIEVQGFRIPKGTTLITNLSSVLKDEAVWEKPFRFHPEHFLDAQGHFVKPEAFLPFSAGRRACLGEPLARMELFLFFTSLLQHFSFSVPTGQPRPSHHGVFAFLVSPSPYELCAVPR

Prostaglandin G/H synthase 1, sequence (P23219 whole entry): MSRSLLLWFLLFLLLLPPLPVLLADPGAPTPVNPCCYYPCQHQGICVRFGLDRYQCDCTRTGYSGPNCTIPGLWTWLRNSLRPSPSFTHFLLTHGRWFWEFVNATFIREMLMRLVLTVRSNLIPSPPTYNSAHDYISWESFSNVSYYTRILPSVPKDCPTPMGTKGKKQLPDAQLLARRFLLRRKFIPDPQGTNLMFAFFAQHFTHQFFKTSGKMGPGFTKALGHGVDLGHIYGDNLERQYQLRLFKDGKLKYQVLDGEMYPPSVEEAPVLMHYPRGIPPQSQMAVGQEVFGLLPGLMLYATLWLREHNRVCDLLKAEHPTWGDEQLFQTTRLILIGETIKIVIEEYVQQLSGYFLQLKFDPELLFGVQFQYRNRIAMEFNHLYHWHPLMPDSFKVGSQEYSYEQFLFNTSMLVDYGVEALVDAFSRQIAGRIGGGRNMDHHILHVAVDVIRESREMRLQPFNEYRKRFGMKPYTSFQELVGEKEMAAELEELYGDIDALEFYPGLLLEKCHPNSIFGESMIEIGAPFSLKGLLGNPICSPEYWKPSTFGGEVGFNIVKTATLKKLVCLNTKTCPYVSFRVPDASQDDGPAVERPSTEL

As for `c1ccc(Cn2ccnc2)cc1`, the IC50 result (in data set [1]; in data set [2]; in data set [3]; at D(4) dopamine receptor; in data set [4]; in data set [5]) was “Not Active” in each case. In addition, the Ki entry in data set [1], in data set [2] and in data set [5] was “Not Active” throughout.
Take `C[N+](C)(C)CCOP(=O)([O-])OC[C@H](O)CO`: the half-maximal inhibitory concentration (IC50) entry (in data set [1]; in data set [2]; in data set [3]; at D(4) dopamine receptor; against Cytochrome P450 2D6; in data set [4]) was “Not Active” throughout. In addition, in data set [5], the half-maximal inhibitory concentration (IC50) result is reported as “Not Active”. The inhibitory constant (Ki) entry (in data set [1]; in data set [2]; at Cytochrome P450 2D6; in data set [5]) was “Not Active” each time.
Turning to `OC[C@H]1OC2C3[C@@H](CO)OC(O[C@H]4[C@H](O)[C@@H](O)[C@@H](O[C@H]5[C@H](O)[C@@H](O)[C@@H](O[C@H]6[C@H](O)[C@@H](O)[C@@H](O[C@H]7[C@H](O)[C@@H](O)[C@@H](O[C@H]8[C@H](O)[C@@H](O)[C@@H](O[C@H]9[C@H](O)[C@@H](O)C(OC1[C@H](O)[C@H]2O)O[C@@H]9CO)O[C@@H]8CO)O[C@@H]7CO)O[C@@H]6CO)O[C@@H]5CO)O[C@@H]4CO)[C@H](O)[C@H]3O`, the IC50 entry (in data set [1]; in data set [2]; in data set [3]; on D(4) dopamine receptor; at Cytochrome P450 2D6; in data set [4]) was “Not Active” in each case. Also, the IC50 entry in data set [5] is “Not Active”. Further, the Ki entry (in data set [1]; in data set [2]; on Cytochrome P450 2D6; in data set [5]) was “Not Active” in each case.
Take `CN(CCOc1ccc(C[C@H](Nc2ccccc2C(=O)c2ccccc2)C(=O)O)cc1)c1ccccn1`: the IC50 result (in data set [1]; in data set [2]; in data set [3]; on D(4) dopamine receptor; against Cytochrome P450 2D6; in data set [4]) was “Not Active” each time. Further, the IC50 in data set [5] (read-out: IC50) turned out to be 19.4 µM. Further, the inhibition constant Ki result (in data set [1]; in data set [2]; on Cytochrome P450 2D6) was “Not Active” throughout.
In the case of `O=c1[nH]c2ccccc2c2ccccc12`, the IC50 entry (in data set [1]; in data set [2]; in data set [3]; on D(4) dopamine receptor; at Cytochrome P450 2D6; in data set [4]) was “Not Active” each time. Moreover, the IC50 result in data set [5] is “Not Active”. Also, the inhibitory constant (Ki) result (in data set [1]; in data set [2]; on Cytochrome P450 2D6; in data set [5]) was “Not Active” throughout.
For the molecule `CO[C@H]1O[C@@H]2O[C@@]3(C)CC[C@H]4[C@H](C)CC[C@@H]([C@H]1C)[C@@]24OO3`, the IC50 result (in data set [1]; in data set [2]; in data set [3]; at D(4) dopamine receptor; against Cytochrome P450 2D6; in data set [4]) was “Not Active” throughout. Moreover, the IC50 entry in data set [5] was “Not Active”. Besides, the Ki entry (in data set [1]; in data set [2]; on Cytochrome P450 2D6; in data set [5]) was “Not Active” each time.
For `Nc1ccc(Cc2ccc(N)cc2)cc1`, the IC50 entry (in data set [1]; in data set [2]; in data set [3]; on D(4) dopamine receptor; on Cytochrome P450 2D6; in data set [4]) was “Not Active” throughout. Moreover, the IC50 entry in data set [5] is “Not Active”. Moreover, the Ki result (in data set [1]; in data set [2]; on Cytochrome P450 2D6; in data set [5]) was “Not Active” each time.
With `CC(C)NCC(O)COc1ccc(CC(N)=O)cc1` (centres undefined) [ATENOLOL], the IC50 result (in data set [1]; in data set [2]; in data set [3]; on D(4) dopamine receptor; in data set [4]; in data set [5]) was “Not Active” throughout. Also, the Ki entry in data set [1], in data set [2] and in data set [5] was “Not Active” throughout.
Turning to `C[C@H]1C[C@H]2[C@@H]3CCC4=CC(=O)C=C[C@]4(C)[C@@]3(F)[C@@H](O)C[C@]2(C)[C@@]1(O)C(=O)CO` [BETAMETHASONE], the IC50 result (in data set [1]; in data set [2]; in data set [3]; at D(4) dopamine receptor; in data set [4]; in data set [5]) was “Not Active” each time. Further, the inhibition constant (Ki) result in data set [1], in data set [2] and in data set [5] was “Not Active” throughout.
With `CN(Cc1cc(Br)cc(Br)c1N)C1CCCCC1` [BROMHEXINE], the concentration for half-maximal inhibition (IC50) entry (in data set [1]; in data set [2]; in data set [3]; on D(4) dopamine receptor; in data set [4]; in data set [5]) was “Not Active” each time. The inhibition constant Ki entry in data set [1], in data set [2] and in data set [5] was “Not Active” in each case.
On to `CC(N)Cc1c[nH]c2ccc(OCc3cccs3)cc12` (centres undefined) [BW-723C86], for which the IC50 in data set [1] (read-out: IC50) was 3.47 µM; in data set [2] it was “Not Active”; in data set [3], “Not Active”; on D(4) dopamine receptor, “Not Active”; in data set [4] it was “Not Active”; in data set [5] it was “Not Active”. In addition, the Ki in data set [1] (read-out: Ki) was 3.08 µM; in data set [2] it was “Not Active”; in data set [5] it was “Not Active”.
For the molecule `CCCCCCNC(=O)n1cc(F)c(=O)[nH]c1=O` [CARMOFUR], the half-inhibitory concentration (IC50) entry (in data set [1]; in data set [2]; in data set [3]; at D(4) dopamine receptor; in data set [4]; in data set [5]) was “Not Active” throughout. The Ki result in data set [1], in data set [2] and in data set [5] was “Not Active” in each case.
On to `CC(C)Cc1ccc([C@H](C)C(=O)O)cc1` [DEXIBUPROFEN], for which the half-maximal inhibitory concentration (IC50) result (in data set [1]; in data set [2]; at D(4) dopamine receptor; on Cytochrome P450 2D6; in data set [4]; in data set [5]) was “Not Active” in each case. Besides, the Ki entry (in data set [1]; in data set [2]; at Cytochrome P450 2D6; in data set [5]) was “Not Active” each time.
Take `CNC[C@H](O)c1ccc(O)c(O)c1` [EPINEPHRINE]: the half-maximal inhibitory concentration (IC50) result (in data set [1]; in data set [3]; on D(4) dopamine receptor; against Cytochrome P450 2D6; in data set [4]; in data set [5]) was “Not Active” throughout. In addition, the Ki entry (in data set [1]; at Cytochrome P450 2D6; in data set [5]) was “Not Active” each time.
On to `NS(=O)(=O)c1cc(C(=O)O)c(NCc2ccco2)cc1Cl` [FUROSEMIDE], for which the half-inhibitory concentration (IC50) entry (in data set [1]; in data set [2]; in data set [3]; at D(4) dopamine receptor; in data set [4]; in data set [5]) was “Not Active” throughout. The Ki entry in data set [1], in data set [2] and in data set [5] was “Not Active” in each case.
Consider `O=C(O)CNCP(=O)(O)O` [GLYPHOSATE], for which the IC50 result (in data set [1]; in data set [2]; in data set [3]; on D(4) dopamine receptor; in data set [4]; in data set [5]) was “Not Active” throughout. The Ki entry in data set [1], in data set [2] and in data set [5] was “Not Active” in each case.
Consider `CCN(CCO)CCCC(C)Nc1ccnc2cc(Cl)ccc12` (centres undefined) [HYDROXYCHLOROQUINE], for which the IC50 result (in data set [1]; in data set [2]; in data set [3]; at D(4) dopamine receptor; in data set [4]; in data set [5]) was “Not Active” in each case. Moreover, the Ki entry in data set [1], in data set [2] and in data set [5] was “Not Active” each time.
With `O=C(O)CCc1nc(-c2ccccc2)c(-c2ccccc2)o1` [OXAPROZIN], the half-maximal inhibitory concentration (IC50) result (in data set [1]; in data set [2]; at D(4) dopamine receptor; against Cytochrome P450 2D6; in data set [4]; in data set [5]) was “Not Active” in each case. Moreover, the Ki result (in data set [1]; in data set [2]; on Cytochrome P450 2D6; in data set [5]) was “Not Active” throughout.
As to `Cc1cc(C(C)(C)C)c(O)c(C)c1CC1=NCCN1` [OXYMETAZOLINE], the IC50 result (in data set [1]; in data set [2]; in data set [3]; on D(4) dopamine receptor; in data set [4]; in data set [5]) was “Not Active” each time. Further, the inhibition constant Ki result in data set [1], in data set [2] and in data set [5] was “Not Active” in each case.

By IC50 is commonly meant the concentration that gives 50% inhibition. As usually defined, the Ki is the dissociation constant of the complex between target and ligand, obtained from inhibition or displacement.
